Numbered stars: 1 amine (or outer) side, 2 acyl side, 3 side chain; on linkers, the order of the positions; unused ones are H or OH. Bridge positions count the residues as written; N and C are the ends. Square brackets hold non-standard residues; d marks the D form. Peptide text beside a SMILES is read from it. * marks the point of attachment. X1 = CC(CC(=O)O)C(N[*:1])C(=O)[*:2]; Kyn = Nc1ccccc1C(=O)C[CH](N)C(=O)O; NH(CH2)11CH3 = CCCCCCCCCCCCN*; Orn = NCCC[CH](N)C(=O)O; CO = O=C([*:1])[*:2]
Columns and labels:
[1] = system: Staphlococcus aureus strain Smith; test: MIC by serial twofold broth dilution in Mueller Hinton broth without and with 4 mmolar CaCl2; format: cell-based, Staphylococcus aureus; settings: for MIC vs. S. aureus w Ca++ / MIC vs. S. aureus wo Ca++: S. aureus strain Smith; for MIC vs. S. aureus w Ca++: Mueller Hinton broth with 4 mmolar CaCl2; for MIC vs. S. aureus wo Ca++: Mueller Hinton broth without CaCl2
[2] = system: gram positive bacteria including methicillin-resistant Staphylococcus aureus (MRSA) and vancomycin-resistant enterococci (VRE); settings: including MRSA and VRE strains; cited from earlier work

Row | Molecule | MIC vs. S. aureus w Ca++ [1] | MIC vs. S. aureus wo Ca++ [1] | Antibacterial activity (in words) ([1]; carbamoyl-linked compounds, Table 2) | Activity against gram positive bacteria (in words) [2]
1 | CCCCCCCCCCCCNC(=O)NC(CC(=O)O)C(=O)NC1C(=O)NCC(=O)NC(CCCN)C(=O)NC(CC(=O)O)C(=O)NC(C)C(=O)NC(CC(=O)O)C(=O)NCC(=O)NC(CO)C(=O)NC(C(C)CC(=O)O)C(=O)NC(CC(=O)c2ccccc2N)C(=O)OC1C (centres unmarked) [Compound 1, N-Dodecylcarbamoyl-cyclodepsipeptide-1] ({NH(CH2)11CH3-CO}-DTG[Orn]DADGS[X1][Kyn]; ester 2-C; configuration not given here) | 10.0 | >20 | good antibacterial activity | 
2 | CCCCCCCCCC(=O)NC(Cc1cccc2ccccc12)C(=O)NC(CC(N)=O)C(=O)NC(CC(=O)O)C(=O)NC1C(=O)NCC(=O)NC(CCCN)C(=O)NC(CC(=O)O)C(=O)NC(C)C(=O)NC(CC(=O)O)C(=O)NCC(=O)NC(CO)C(=O)NC(C(C)CC(=O)O)C(=O)NC(CC(=O)c2ccccc2N)C(=O)OC1C [Compound 11, N-Decanoyl-L-β-(1-naphthyl)alanyl-cyclodepsipeptide-2] | 0.16 | 2.5 |  | 
3 | CH3(CH2)8CO-Asn-Asp-cdpeptide [Compound 4] | >10 | >20 |  | 
4 | CH3(CH2)8CO-D-Harm-Asn-Asp-cdpeptide [Compound 14] | >10 | >10 |  | 
5 | CH3(CH2)8CO-L-Harm-Asn-Asp-cdpeptide [Compound 13] | 5.0 | >10 |  | 
6 | CH3(CH2)8CO-Trp-Asn-Asp-cdpeptide [daptomycin, reference compound] | 0.16 | 2.5 |  | excellent activity
7 | CH3(CH2)8CO-Trp-Asn-Asp-tBOC-cdpeptide [tBOC daptomycin, reference compound] | 0.6 | >2.5 |  | 
8 | CH3(CH2)9SO2-L-Phe-Asn-Asp-FMOC-cdpeptide [Compound 8] | 5.0 | >20 |  | 
9 | CH3(CH2)11NHCO-Asn-Asp-FMOC-cdpeptide [Compound 2] | 5.0 | >20 |  | 

— patent publication US6767718B2, “Lipodepsipeptide antibiotics and methods of preparation” (BioSource Pharm, Inc., priority 2002, dated 2004)
